Patent publication US20260062443A1 (ALEXION PHARMACEUTICALS, INC., priority 2022, published 2026)

molecular target: T1, Human complement C1s enzyme (Homo sapiens, UniProt P09871); assay: Human C1s enzyme assay; assay type: biochemical; conditions: human complement C1s enzyme 1.16 nM, substrate Z-L-Lys-SBzl 100 μM, 5 min preincubation; read-out: IC50 (Stars), C1s Inhibiting Activity
T1 sequence (P09871 438-688 limits assumed): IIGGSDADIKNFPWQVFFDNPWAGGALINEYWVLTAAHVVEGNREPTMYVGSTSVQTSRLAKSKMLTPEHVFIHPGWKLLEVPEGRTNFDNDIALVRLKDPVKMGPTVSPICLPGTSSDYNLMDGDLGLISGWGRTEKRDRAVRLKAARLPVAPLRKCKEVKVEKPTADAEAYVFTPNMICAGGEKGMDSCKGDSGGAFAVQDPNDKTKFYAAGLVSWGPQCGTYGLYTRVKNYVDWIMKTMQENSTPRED
T1 sequence (P09871 16-437 partner limits assumed): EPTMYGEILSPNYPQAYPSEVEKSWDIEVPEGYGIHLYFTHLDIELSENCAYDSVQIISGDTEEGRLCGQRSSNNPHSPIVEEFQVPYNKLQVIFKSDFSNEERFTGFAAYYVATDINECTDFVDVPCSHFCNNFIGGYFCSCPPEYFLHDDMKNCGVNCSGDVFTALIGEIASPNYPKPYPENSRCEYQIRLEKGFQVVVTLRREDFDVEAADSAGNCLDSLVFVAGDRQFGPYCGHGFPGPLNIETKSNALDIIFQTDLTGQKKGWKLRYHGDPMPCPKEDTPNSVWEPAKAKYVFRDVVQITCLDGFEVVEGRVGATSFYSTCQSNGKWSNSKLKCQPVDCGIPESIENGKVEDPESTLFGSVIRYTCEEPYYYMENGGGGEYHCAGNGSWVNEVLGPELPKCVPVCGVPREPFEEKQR
Summary of the method: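 IC50 from nonlinear regression of reaction rates versus compound concentration, with rates taken from A405 recorded at 30 s intervals over 30 min after adding 100 μM Z-L-Lys-SBzl plus 100 μM DTNB. Enzyme was human C1s purified from serum, 1.16 nM, given 5 min compound preincubation at room temperature, pH 7.5 Tris/1 M NaCl.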

IC50 [nM]	SMILES
> 1000	O=C(NCC(=O)N1CC2(C[C@H]1C(=O)NCc1cc3cc(Cl)ccc3[nH]1)OCCO2)c1ccc2c(c1)Oc1ccccc1S2 [Compound 19, (S)-N-((5-chloro-1H-indol-2-yl)methyl)-7-((phenoxathiine-3-carbonyl)glycyl)-1,4-dioxa-7-azaspiro[4.4]nonane-8-carboxamide]
100 to 1000	C[C@@H](NC(=O)[C@@H]1CC2(CN1C(=O)CN1Cc3cc(-c4ccc(F)cc4F)ccc3C1=O)OCCO2)c1cc2cnccc2[nH]1 [Compound 122, (S)-N-((R)-1-(1H-pyrrolo[3,2-c]pyridin-2-yl)ethyl)-7-(2-(5-(2,4-difluorophenyl)-1-oxoisoindolin-2-yl)acetyl)-1,4-dioxa-7-azaspiro[4.4]nonane-8-carboxamide]
< 100	O=C(NCC(=O)N1C[C@H](OC(F)F)C[C@H]1C(=O)NCc1cc2cnccc2[nH]1)c1cccc(Oc2ccccc2)c1 [Compound 127, (2S,4R)-N-((1H-pyrrolo[3,2-c]pyridin-2-yl)methyl)-4-(difluoromethoxy)-1-((3-phenoxybenzoyl)glycyl)pyrrolidine-2-carboxamide]
< 100	C[C@@H](NC(=O)[C@@H]1C[C@@H](OC(F)(F)F)CN1C(=O)CNC(=O)c1ccc2c(c1)Oc1ccccc1S2)c1cc2cnccc2[nH]1 [Compound 251, (2S,4R)-N-((R)-1-(1H-pyrrolo[3,2-c]pyridin-2-yl)ethyl)-1-((phenoxathiine-3-carbonyl)glycyl)-4-(trifluoromethoxy)pyrrolidine-2-carboxamide]
